This is an account of results in patent publication US9801815B2, “Galenical form for the administration of triptans by buccal transmucous means” (priority 2008, dated 2017).

Each structure is given as a SMILES string.

Data set [1] in a line: dissolution of Sumatriptan in ethanol. Conditions: 2 mg, 4 mg or 6 mg of Sumatriptan for 0.75 ml of ethanol at 35%. In kind it is physicochemical. From the text:
This coefficient can be modulated based on the degree of alcohol and the water/ethanol ratio that is used.

The conditions of data set [2]: administered via the digestive tract; cited from earlier work.
For data set [3] the following is noted: intra-nasal, 20 mg (nasal spray, Imigrane); cited from earlier work.
Data set [4] deals with acute Cluster Headache attack. Conditions: subcutaneous injection, single dosage of 6 mg, mean delay of 15 minutes; cited from earlier work.

On to `CNS(=O)(=O)Cc1ccc2[nH]cc(CCN(C)C)c2c1` [Sumatriptan], for which, in data set [1], the dissolution in ethanol entry was “complete dissolution”. In data set [2], the “mean volume of theoretical distribution in the human body” value was 200 L and the residual bioavailability entry is “less than 14 % of the administered dose”. Besides, the “mean bioavailability of the administered dose” value in data set [3] is recorded as no more than 10%. The “remission of the acute Cluster Headache attack” value in data set [4] is given as 75%.
